ChEMBL document CHEMBL1255455, “Biochemical study of a new inhibitor-resistant beta-lactamase, SHV-84, produced by a clinical Escherichia coli strain” (2010)
In brackets after ≈: the same amount, converted by molar mass.

B1: Beta-lactamase SHV-1 (Escherichia coli), P0AD63 (protein)
chain: MRYIRLCIISLLATLPLAVHASPQPLEQIKLSESQLSGRVGMIEMDLASGRTLTAWRADERFPMMSTFKVVLCGAVLARVDAGDEQLERKIHYRQQDLVDYSPVSEKHLADGMTVGELCAAAITMSDNSAANLLLATVGGPAGLTAFLRQIGDNVTRLDRWETELNEALPGDARDTTTPASMAATLRKLLTSQRLSARSQRQLLQWMVDDRVAGPLIRSVLPAGWFIADKTGAGERGARGIVALLGPNNKAERIVVIYLRDTPASMAERNQQIAGIGAALIEHWQR

Legend:
[1] = tested on: Escherichia coli; experiment: Antimicrobial activity against Escherichia coli DH5alpha; assay type: functional
[2] = tested on: Escherichia coli; experiment: Ratio of Kcat to Km in Escherichia coli beta-lactamase SHV-84
[3] = tested on: Escherichia coli; experiment: Antimicrobial activity against Escherichia coli DH5alpha expressing SHV-84 in presence of 4 ug/ml Tazobactam beta-lactamase inhibitor; assay type: functional
[4] = tested on: Escherichia coli; experiment: Antimicrobial activity against Escherichia coli DH5alpha in presence of 4 ug/ml Tazobactam beta-lactamase inhibitor; assay type: functional
[5] = tested on: Escherichia coli; experiment: Activity at Escherichia coli beta-lactamase SHV-84
[6] = tested on: Escherichia coli; experiment: Antimicrobial activity against Escherichia coli DH5alpha expressing SHV-1 in presence of 4 ug/ml Tazobactam beta-lactamase inhibitor; assay type: functional
[7] = tested on: Escherichia coli; experiment: Antimicrobial activity against Escherichia coli DH5alpha expressing SHV-84; assay type: functional
[8] = tested on: Escherichia coli; experiment: Antimicrobial activity against Escherichia coli DH5alpha expressing SHV-1; assay type: functional
[9] = tested on: Escherichia coli; experiment: Antimicrobial activity against Escherichia coli INSRA4590 expressing SHV-84; assay type: functional
[10] = tested on: Escherichia coli; experiment: Antimicrobial activity against Escherichia coli INSRA4590 expressing SHV-84 in presence of 4 ug/ml Tazobactam beta-lactamase inhibitor; assay type: functional
[11] = tested on: Escherichia coli; experiment: Antimicrobial activity against Escherichia coli INSRA4590 expressing SHV-84 in presence of 2 ug/ml clavulanic acid beta-lactamase inhibitor; assay type: functional
[12] = tested on: Escherichia coli; experiment: Antimicrobial activity against Escherichia coli DH5alpha in presence of 2 ug/ml clavulanic acid beta-lactamase inhibitor; assay type: functional
[13] = tested on: Escherichia coli; experiment: Antimicrobial activity against Escherichia coli DH5alpha expressing SHV-1 in presence of 2 ug/ml clavulanic acid beta-lactamase inhibitor; assay type: functional
[14] = tested on: Escherichia coli; experiment: Antimicrobial activity against Escherichia coli DH5alpha expressing SHV-84 in presence of 2 ug/ml clavulanic acid beta-lactamase inhibitor; assay type: functional
[15] = substrate: CC1(C)S[C@@H]2[C@H](NC(=O)[C@H](N)c3ccc(O)cc3)C(=O)N2[C@H]1C(=O)O; experiment: (§1) Ratio of Kcat to Km in Escherichia coli beta-lactamase SHV-1
[16] = substrate: CC1(C)S[C@@H]2[C@H](NC(=O)Cc3ccccc3)C(=O)N2[C@H]1C(=O)O; experiment: as §1
[17] = substrate: CC1(C)S[C@@H]2[C@H](NC(=O)[C@H](C(=O)O)c3ccsc3)C(=O)N2[C@H]1C(=O)O; experiment: as §1
[18] = substrate: CCN1CCN(C(=O)N[C@@H](C(=O)N[C@@H]2C(=O)N3[C@@H]2SC(C)(C)[C@@H]3C(=O)O)c2ccccc2)C(=O)C1=O; experiment: as §1
[19] = substrate: CO/N=C(\C(=O)N[C@@H]1C(=O)N2C(C(=O)O)=C(COC(C)=O)CS[C@H]12)c1csc(N)n1; experiment: (§2) Activity at Escherichia coli beta-lactamase SHV-1
[20] = substrate: CC1(C)S[C@@H]2[C@H](NC(=O)[C@H](N)c3ccc(O)cc3)C(=O)N2[C@H]1C(=O)O; experiment: as §2
[21] = substrate: CC1(C)S[C@@H]2[C@H](NC(=O)Cc3ccccc3)C(=O)N2[C@H]1C(=O)O; experiment: as §2
[22] = substrate: CC1(C)S[C@@H]2[C@H](NC(=O)[C@H](C(=O)O)c3ccsc3)C(=O)N2[C@H]1C(=O)O; experiment: as §2
[23] = substrate: CCN1CCN(C(=O)N[C@@H](C(=O)N[C@@H]2C(=O)N3[C@@H]2SC(C)(C)[C@@H]3C(=O)O)c2ccccc2)C(=O)C1=O; experiment: as §2
[24] = substrate: CC(=O)OCC1=C(C(=O)O)N2C(=O)[C@@H](NC(=O)Cc3cccs3)[C@H]2SC1; experiment: as §2
[25] = substrate: CC(C)(O/N=C(\C(=O)N[C@@H]1C(=O)N2C(C(=O)[O-])=C(C[n+]3ccccc3)CS[C@H]12)c1csc(N)n1)C(=O)O; experiment: as §2

Molecule | MIC [1] [µg/mL] | kcat/Km [2] [M⁻¹ s⁻¹] | Km [5] [µM] | kcat [5] [s⁻¹] | MIC [7] [µg/mL] | MIC [8] [µg/mL] | MIC [9] [µg/mL] | other results
CCN1CCN(C(=O)N[C@@H](C(=O)N[C@@H]2C(=O)N3[C@@H]2SC(C)(C)[C@@H]3C(=O)O)c2ccccc2)C(=O)C1=O [PIPERACILLIN] | 1 (≈ 1.93 µM) | 6e+06 | 68 | 406 | 128 (≈ 247 µM) | 64 (≈ 124 µM) | 64 (≈ 124 µM) | MIC [3]: 2 µg/mL; MIC [4]: 1 µg/mL; MIC [6]: 2 µg/mL; MIC [10]: 4 µg/mL
C[C@H]1[C@H](NC(=O)/C(=N\OC(C)(C)C(=O)O)c2csc(N)n2)C(=O)N1S(=O)(=O)O [AZTREONAM] | – | – | – | – | 0.03 (≈ 0.0689 µM) | – | 0.03 (≈ 0.0689 µM) | –
CC(C)(O/N=C(\C(=O)N[C@@H]1C(=O)N2C(C(=O)[O-])=C(C[n+]3ccccc3)CS[C@H]12)c1csc(N)n1)C(=O)O [CEFTAZIDIME] | 0.06 (≈ 0.11 µM) | – | – | < 0.1 | 0.25 (≈ 0.457 µM) | 0.5 (≈ 0.915 µM) | 0.25 (≈ 0.457 µM) | –
CC1(C)S[C@@H]2[C@H](NC(=O)[C@H](C(=O)O)c3ccsc3)C(=O)N2[C@H]1C(=O)O [TICARCILLIN] | ≤ 2 | 2.5e+06 | 83 | 216 | > 4100 | 1020 (≈ 2660 µM) | > 4100 | –
CC(=O)OCC1=C(C(=O)O)N2C(=O)[C@@H](NC(=O)Cc3cccs3)[C@H]2SC1 [CEPHALOTHIN] | 1 (≈ 2.52 µM) | 20000 | 169 | 4 | 8 (≈ 20.2 µM) | 16 (≈ 40.4 µM) | 8 (≈ 20.2 µM) | –
CC1(C)S[C@@H]2[C@H](NC(=O)[C@H](N)c3ccc(O)cc3)C(=O)N2[C@H]1C(=O)O [AMOXICILLIN] | ≤ 2 | 1.04e+07 | 101 | 1040 | 2050 (≈ 5600 µM) | 2050 (≈ 5600 µM) | 512 (≈ 1400 µM) | MIC [11]: 64 µg/mL; MIC [12]: ≤ 2 µg/mL; MIC [13]: 8 µg/mL; MIC [14]: > 64 µg/mL
CC1(C)S[C@@H]2[C@H](NC(=O)Cc3ccccc3)C(=O)N2[C@H]1C(=O)O | – | 9.5e+06 | 64 | 611 | – | – | – | –
CO/N=C(\C(=O)N[C@@H]1C(=O)N2C(C(=O)O)=C(COC(C)=O)CS[C@H]12)c1csc(N)n1 [CEFOTAXIME] | ≤ 0.015 | – | – | < 0.1 | 0.06 (≈ 0.132 µM) | 0.06 (≈ 0.132 µM) | 0.125 (≈ 0.274 µM) | –
B1 | – | – | – | – | – | – | – | kcat/Km [15]: 3.37e+07 M⁻¹ s⁻¹; kcat/Km [16]: 8.42e+07 M⁻¹ s⁻¹; kcat/Km [17]: 2e+07 M⁻¹ s⁻¹; kcat/Km [18]: 6.21e+07 M⁻¹ s⁻¹; kcat [19]: < 0.1 s⁻¹; Km [20]: 31 µM; Km [21]: 23 µM; kcat [21]: 1940 s⁻¹; Km [22]: 11 µM; kcat [22]: 220 s⁻¹; Km [23]: 24 µM; kcat [23]: 1490 s⁻¹; Km [24]: 40 µM; kcat [24]: 128 s⁻¹; kcat [25]: < 0.1 s⁻¹
